From article PMC9032233, “2-{5-[(Z,2Z)-2-Chloro-3-(4-nitrophenyl)-2-propenylidene]-4-oxo-2-thioxothiazolidin-3-yl}-3-methylbutanoic Acid as a Potential Anti-Breast Cancer Molecule” (International Journal of Molecular Sciences, 2022) come the findings set out here.

One experiment deals with MCF-7 cells. The experiment is described as follows: Mitochondrial membrane potential analysis (JC-1), MCF-7. As to conditions: 24 h. Format: cell-based, human. How it is done:
The JC-1 MitoScreen kit (BD Biosciences, San Diego, CA, USA) was used for the mitochondrial membrane potential (ΔΨm) analysis. The assay was performed using a flow cytometer (BD FACSCanto II, Becton Dickinson Biosciences Systems, San Jose, CA, USA). The Les-3331 and reference drug were used in 1 µM and 5 µM concentrations. After 24 h incubation with tested compounds, the assay was performed as described in the literature. Analysis of the obtained results was performed using FACSDiva software (version 6.1.3, BD Biosciences Systems, San Jose, CA, USA). The equipment was calibrated with BD Cytometer Setup and Tracking Beads (BD Biosciences, San Diego, CA, USA).

The test system of a further experiment is LC3A. Kind of experiment: LC3A concentration in MCF-7 cell lysates (ELISA). Format: cell-based, human. As to conditions: 24 h, control 6.726 ng/mL. The protocol: High sensitivity assay kits (EIAab Science Co., Ltd., Wuhan, China; Abcam plc., Cambridge, United Kingdom; Cloud-Clone Corp., Katy, TX, USA) were used to determine the concentrations of selected proteins in cell lysates […] In brief, after trypsinization, cells were washed thrice with cold PBS and centrifuged at 1000× g for 5 min at 4 °C. Then, cells (1.5 × 10^6) were suspended in lysis buffer for whole-cell lysates. After the second centrifugation, cellular supernatants were frozen immediately at −70 °C. Untreated cancer cells were taken as a control.
(§1) The microtiter plates provided in the kits were pre-coated with an antibody specific to the analyzed antigen. The tests were carried out according to the manufacturer’s protocols.

The test system of experiment [1] is MDA-MB-231 cells. The experiment is described as follows: [3H]-thymidine incorporation assay, MDA-MB-231. The format is cell-based. As to conditions: Homo sapiens. The protocol: The antiproliferative properties of the newly synthesized compound were investigated through the [^3H]-thymidine incorporation assay, as described in the literature. Cells culture was exposed to various concentrations of Les-3331 acid and reference drug for 24 h. Thereafter, cells were washed with PBS and 1 mL of fresh medium was added to each well. Then, 0.5 µCi of radioactive [^3H]-thymidine was appended, and the incubation continued for four hours. After the following incubation, the liquid was aspirated and the plate was placed on ice. Cells were washed twice with 1 mL of 0.05 M Tris-HCl buffer comprising 0.11 M NaCl, then twice after that with 1 mL of 5% TCA acid (Stanlab, Lublin, Poland). Finally, the cells were dissolved with 1 mL of 0.1 M NaOH with 1% SDS (Sigma-Aldrich, St. Louis, MO, USA) at room temperature (RT). The resulting cell lysates were transferred into scintillation vials containing 2 mL of scintillation fluid. The radioactivity was determined using Scintillation Counter 1900 TR, TRI-CARB (Packard, Perkin Elmer, Inc., San Jose, CA, USA). The intensity of DNA biosynthesis in cells was expressed in dpm of radioactive thymidine incorporated in the DNA. The radioactivity observed in untreated control cells was taken as 100%. Values from the tested compounds were expressed as a percentage of the control value.
(Incorporation of labelled thymidine or its analogues reports DNA synthesis.)

Experiment [2] has as its system MDA-MB-231 cells. Kind of experiment: Annexin V binding assay (flow cytometry), MDA-MB-231. Format: cell-based, human. As to conditions: 24 h. The protocol: The effect of Les-3331 and reference drug on the induction of apoptosis process in human breast cancer cell lines was evaluated using a flow cytometer (BD FACSCanto II, Becton Dickinson Biosciences Systems, San Jose, CA, USA) and Annexin V binding Apoptosis Detection Kit II (BD Biosciences, San Diego, CA, USA). The Les-3331 and reference drug were used in 1 µM and 5 µM concentrations. The test was carried out after 24 h incubation with the tested compounds according to the manufacturer’s protocol and was previously described by our research group. Analysis of the obtained results was performed using FACSDiva software (version 6.1.3, BD Biosciences Systems, San Jose, CA, USA). The equipment was calibrated with BD Cytometer Setup and Tracking Beads (BD Biosciences, San Diego, CA, USA).

The next experiment deals with topoisomerase II. Kind of experiment: Topoisomerase II concentration in MCF-7 cell lysates (ELISA). The format is cell-based, human. As to conditions: 24 h, control 2.260 ng/mL. The protocol: High sensitivity assay kits (EIAab Science Co., Ltd., Wuhan, China; Abcam plc., Cambridge, United Kingdom; Cloud-Clone Corp., Katy, TX, USA) were used to determine the concentrations of selected proteins in cell lysates after 24 h incubation with novel compound and reference drug in 1 µM and 5 µM concentrations. In brief, after trypsinization, cells were washed thrice with cold PBS and centrifuged at 1000× g for 5 min at 4 °C. Then, cells (1.5 × 10^6) were suspended in lysis buffer for whole-cell lysates. After the second centrifugation, cellular supernatants were frozen immediately at −70 °C. Untreated cancer cells were taken as a control.
as §1
A general note: ELISA stands for enzyme-linked immunosorbent assay.

The subject of experiment [3] is MCF-7 human breast cancer cells. The experiment is described as follows: MTT cell viability assay, MCF-7. As to conditions: MCF7, MCF-7, MTT, 24 h incubation. Format: cell-based. How it is done:
Cell culture MCF-7, MDA-MB-231 human breast cancer cells, and fibroblasts skin cells were purchased from the ATCC—American Type Culture Collection. All cell lines were maintained in DMEM (Corning, Kennebunk, ME, USA). The medium was supplemented with 10% fetal bovine serum—FBS (Eurx, Gdansk, Poland) and 1% antimicrobial substances: penicillin–streptomycin (Corning, Kennebunk, ME, USA). The incubator asserted appropriate growth conditions required for these cell lines: 5% of CO2, at 37 °C, with the humidity between 90–95%. Cells were seeded in 100 mm round dishes. An amount of 0.05% trypsin containing 0.02% EDTA (Corning, Kennebunk, ME, USA) and phosphate-buffered saline (PBS) without calcium and magnesium (Corning, Kennebunk, ME, USA) was used to detach cells from a plate once 80–90% cell confluence was achieved. In the next step, cells were reseeded in six-well plates (density—5 × 10^5 of cells per well) in 1 mL of DMEM after a 24 h incubation used in the presented tests.
To examine the effect of Les-3331 on cell viability, the MTT assay was performed. […] The absorbance was measured using Spectrophotometer UV-VIS Helios Gamma (Unicam/ThermoFisher Scientific Inc., Waltham, MA, USA) at a wavelength of 570 nm. The obtained absorbance in untreated control cells was taken as 100%, while the survival of the cells incubated with tested compounds presented as a percentage of the control value.
For orientation: Tetrazolium dyes change colour on reduction, which living cells bring about.

The structures appear in SMILES notation. Read-outs that look alike come from different tables or passages of the source. A value given as a limit tells only on which side of the number the result lay.

Regarding `COc1cc([C@@H]2c3cc4c(cc3[C@@H](O[C@@H]3O[C@@H]5CO[C@@H](C)O[C@H]5[C@H](O)[C@H]3O)[C@H]3COC(=O)[C@H]23)OCO4)cc(OC)c1O` [Etoposide, reference compound], the “% of cells with decreased ΔΨm” value in the experiment with MCF-7 cells (MCF-7, 1 µM) worked out at 10.2%; in the experiment on MCF-7 cells (MCF-7, 5 µM) it was 18.5%. Further, the LC3A concentration was determined as 4.505 ng/mL in the experiment with LC3A (MCF-7, 1 µM) and 4.582 ng/mL with LC3A (MCF-7, 5 µM). Besides, the IC50 was more than 20 µM with MDA-MB-231 cells [1] (MDA-MB-231, 24 h incubation, read-out: IC50, cell proliferation ([3H]-thymidine incorporation)) and more than 50 µM in experiment [3]. Besides, the “% of late and early apoptotic cells” value stood at 4.7% in the experiment on MDA-MB-231 cells [2] (MDA-MB-231, 1 µM) and 7.2% with MDA-MB-231 cells [2] (MDA-MB-231, 5 µM). In addition, the “Top II concentration” value with topoisomerase II (MCF-7, 1 µM) was found to be 1.587 ng/mL; in the experiment on topoisomerase II (MCF-7, 5 µM) it was 1.443 ng/mL.

In the case of `CC(C)C(C(=O)O)N1C(=O)/C(=C/C(Cl)=C/c2ccc([N+](=O)[O-])cc2)SC1=S` (centres unmarked) [Les-3331, 2-{5-[(Z,2Z)-2-chloro-3-(4-nitrophenyl)-2-propenylidene]-4-oxo-2-thioxothiazolidin-3-yl}-3-methylbutanoic acid], the “% of cells with decreased ΔΨm” value stood at 9.8% with MCF-7 cells (MCF-7, 1 µM) and 25.5% in the experiment with MCF-7 cells (MCF-7, 5 µM). For the same molecule, the LC3A concentration in the experiment on LC3A (MCF-7, 1 µM) was found to be 4.917 ng/mL; in the experiment on LC3A (MCF-7, 5 µM), 1.127 ng/mL. For the same molecule, the IC50 was found to be 8.01 µM with MDA-MB-231 cells [1] (MDA-MB-231, read-out: IC50, cell proliferation ([3H]-thymidine incorporation)) and 5.02 µM in experiment [3]. For the same molecule, the “% of late and early apoptotic cells” value in the experiment on MDA-MB-231 cells [2] (MDA-MB-231, 1 µM) is given as 5.1%; with MDA-MB-231 cells [2] (MDA-MB-231, 5 µM), 18.1%. Moreover, the “Top II concentration” value in the experiment with topoisomerase II (MCF-7, 1 µM) is listed as 0.900 ng/mL; with topoisomerase II (MCF-7, 5 µM) it was 0.625 ng/mL.
